Columns and labels:
GST-JNK3 = GST-JNK3 (Homo sapiens, UniProt P53779); assay: JNK3 in vitro assay (33P incorporation into c-Jun, SPA); assay type: biochemical; conditions: recombinant pre-activated GST-JNK3, biotinylated GST-c-Jun, 2 μM 33γ-ATP, 120 min RT
Experimental: (§1) JNK2 and -3 in vitro Assays:
(§2) The phosphorylation of c-jun by JNK2 or JNK3 may be followed by monitoring the incorporation of ^33P into c-jun following the protocol below. The inhibitory activity of the compounds according to formula I, in respect of c-jun phosphorylation through JNK, is determined by calculating the phosphorylation activity of a JNK in the presence or absence of the test compounds according to formula I.
(§3) JNK3 and/or -2 assays are performed in 96 well MTT plates: incubation of 0.5 μg of recombinant, pre-activated GST-JNK3 or GST-JNK2 with 1 μg of recombinant, biotinylated GST-c-Jun and 2 μM ^33γ-ATP (2 nCi/μl), in the presence or absence of compounds according to formula I and in a reaction volume of 50 μl containing 50 mM Tris-HCl, pH 8.0; 10 mM MgCl2; 1 mM Dithiothreitol, and 100 μM NaVO4. The incubation is performed for 120 min. at R.T and stopped upon addition of 200 μl of a solution containing 250 μg of Streptavidine-coated SPA beads (Amersham, Inc.)*, 5 mM EDTA, 0.1% Triton X-100 and 50 μM ATP, in phosphate saline buffer.
(§4) After incubation for 60 minutes at RT, beads are sedimented by centrifugation at 1500×g for 5 minutes, resuspended in 200 μl of PBS containing 5 mM EDTA, 0.1% Triton X-100 and 50 μM ATP and the radioactivity measured in a scintillation β counter, following sedimentation of the beads as described above. By replacing biotinylated GST-c Jun with biotinylated GST-1ATF2 or biotinylated myelin basic protein, this assay may also be used to measure inhibition of pre-activated p38 and ERK MAP Kinases, respectively.
(§5) The values indicated in respect of JNK2 and 3 refer to the IC50 (μM), i.e. the amount necessary to achieve 50% inhibition either of JNK3 or JNK2.

GST-JNK2 = GST-JNK2 (Homo sapiens, UniProt P45984); assay: JNK2 in vitro assay (33P incorporation into c-Jun, SPA); assay type: biochemical; conditions: recombinant pre-activated GST-JNK2, biotinylated GST-c-Jun, 2 μM 33γ-ATP, 120 min RT
Experimental: as §1, §2, §3, §4, §5

GST-JNK2, sequence (P45984 whole entry): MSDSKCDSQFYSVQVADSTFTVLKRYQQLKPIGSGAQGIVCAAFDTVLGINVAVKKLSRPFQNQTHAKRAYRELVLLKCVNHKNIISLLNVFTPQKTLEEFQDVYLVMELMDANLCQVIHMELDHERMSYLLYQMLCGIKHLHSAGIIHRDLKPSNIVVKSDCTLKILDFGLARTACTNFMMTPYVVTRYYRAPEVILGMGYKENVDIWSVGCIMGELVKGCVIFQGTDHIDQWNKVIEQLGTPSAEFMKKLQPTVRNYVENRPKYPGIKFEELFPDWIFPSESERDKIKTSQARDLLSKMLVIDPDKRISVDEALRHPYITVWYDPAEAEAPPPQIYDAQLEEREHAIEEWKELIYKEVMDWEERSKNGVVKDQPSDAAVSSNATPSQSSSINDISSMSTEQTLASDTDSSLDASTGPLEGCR
GST-JNK3, sequence (P53779 whole entry): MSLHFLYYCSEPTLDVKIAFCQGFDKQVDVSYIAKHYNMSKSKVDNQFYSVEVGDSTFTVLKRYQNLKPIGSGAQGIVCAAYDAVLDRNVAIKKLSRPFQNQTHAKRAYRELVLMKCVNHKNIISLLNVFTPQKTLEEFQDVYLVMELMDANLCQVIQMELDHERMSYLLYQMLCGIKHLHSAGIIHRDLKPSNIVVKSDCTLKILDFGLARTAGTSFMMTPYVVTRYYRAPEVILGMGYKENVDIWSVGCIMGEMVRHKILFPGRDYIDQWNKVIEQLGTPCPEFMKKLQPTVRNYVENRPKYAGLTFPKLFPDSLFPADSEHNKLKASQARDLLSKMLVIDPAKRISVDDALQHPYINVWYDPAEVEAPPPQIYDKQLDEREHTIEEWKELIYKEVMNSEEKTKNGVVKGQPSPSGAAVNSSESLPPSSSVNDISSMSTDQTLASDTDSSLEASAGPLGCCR

For `O=C(NCc1cccc(S(=O)(=O)N2CCC(Nc3cccc(S(=O)(=O)C(F)(F)F)c3)CC2)c1)c1ccc(Cl)cc1` [Example 3, 4-chloro-N-{3-[(4-{3-[(trifluoromethyl)sulfonyl]anilino}-1-piperidinyl)sulfonyl]benzyl}benzamide], the IC50 (GST-JNK3) was less than 0.4 µM and the IC50 (GST-JNK2) was less than 0.7 µM.

For `O=C(NCc1ccc(S(=O)(=O)N2CCC(NCCc3cccc(C(F)(F)F)c3)CC2)cc1)c1ccc(Cl)cc1` [Example 11, 4-chloro-N-(4-{[4-({2-[3-(trifluoromethyl)phenyl]ethyl}amino)-1-piperidinyl]sulfonyl}benzyl)benzamide], the IC50 (GST-JNK3) was less than 0.4 µM and the IC50 (GST-JNK2) was less than 0.7 µM.

For `CCCCCCNC1CCN(S(=O)(=O)c2ccc(NC(=O)c3ccc(Cl)cc3)cc2)C1` (centres unmarked) [Example 28, 4-chloro-N-(4-{[3-(hexylamino)-1-pyrrolidinyl]sulfonyl}phenyl)benzamide], the IC50 (GST-JNK3) was less than 0.4 µM and the IC50 (GST-JNK2) was less than 0.7 µM.

Compound `O=C(NCc1ccc(S(=O)(=O)N2CCC(NCCc3cccc(C(F)(F)F)c3)C2)cc1)c1ccc(Cl)cc1` (centres unmarked) [Example 31, 4-chloro-N-(4-{[3-({2-[3-(trifluoromethyl)phenyl]ethyl)amino)-1-pyrrolidinyl]sulfonyl}benzyl)benzamide] has an IC50 (GST-JNK3) of less than 0.4 µM and an IC50 (GST-JNK2) of less than 0.7 µM.

Source: patent US7417058B2, “Pharmaceutically active benzsulfonamide derivatives as inhibitors of protein junkinases” (Laboratoires Serono S.A., priority 2000, dated 2008)
